Results taken from patent US12275731B2, “Azaindole inhibitors of wild-type and mutant forms of LRRK2” (DANA-FARBER CANCER INSTITUTE, INC., priority 2018, dated 2025).

What was measured:
Experiment in all cases: KinomeScan profiling
Assay type in all cases: binding
[1] = molecular target: T1, ABL1(Q252H)-nonphosphorylated (Homo sapiens, UniProt P00519, Q252H); details: read-out: % control
T1 construct: purchased KinomeScan®
Method in brief: (§1)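 At 1 μM in DMSO, compounds are run through a broad 468-member kinase panel. The luminescent read-out is normalised so that vehicle gives 100% and a positive control gives 0%; any kinase falling below 35% is treated as a target.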

CSNK2A2 = CSNK2A2 (Homo sapiens, UniProt P19784); details: CSNK2A2, 1 μM; read-out: % control
Method in brief: as §1

PKAC-alpha = molecular target: T2, PKAC-alpha (Homo sapiens, UniProt P17612); details: read-out: % control
T2 construct: purchased KinomeScan® (panel service)
Method in brief: as §1

[2] = molecular target: T3, ABL1(T315I)-nonphosphorylated (Homo sapiens, UniProt P00519, T315I); details: read-out: % control
T3 construct: purchased KinomeScan®
Method in brief: as §1

ABL2 = molecular target: T4, ABL2 (Homo sapiens, UniProt P42684); details: ABL2, 1 μM; read-out: % control
T4 construct: purchased KinomeScan®
Method in brief: as §1

PLK4 = molecular target: T5, PLK4 (Homo sapiens, UniProt O00444); details: PLK4, 1 μM; read-out: % control
T5 sequence (O00444 1-970): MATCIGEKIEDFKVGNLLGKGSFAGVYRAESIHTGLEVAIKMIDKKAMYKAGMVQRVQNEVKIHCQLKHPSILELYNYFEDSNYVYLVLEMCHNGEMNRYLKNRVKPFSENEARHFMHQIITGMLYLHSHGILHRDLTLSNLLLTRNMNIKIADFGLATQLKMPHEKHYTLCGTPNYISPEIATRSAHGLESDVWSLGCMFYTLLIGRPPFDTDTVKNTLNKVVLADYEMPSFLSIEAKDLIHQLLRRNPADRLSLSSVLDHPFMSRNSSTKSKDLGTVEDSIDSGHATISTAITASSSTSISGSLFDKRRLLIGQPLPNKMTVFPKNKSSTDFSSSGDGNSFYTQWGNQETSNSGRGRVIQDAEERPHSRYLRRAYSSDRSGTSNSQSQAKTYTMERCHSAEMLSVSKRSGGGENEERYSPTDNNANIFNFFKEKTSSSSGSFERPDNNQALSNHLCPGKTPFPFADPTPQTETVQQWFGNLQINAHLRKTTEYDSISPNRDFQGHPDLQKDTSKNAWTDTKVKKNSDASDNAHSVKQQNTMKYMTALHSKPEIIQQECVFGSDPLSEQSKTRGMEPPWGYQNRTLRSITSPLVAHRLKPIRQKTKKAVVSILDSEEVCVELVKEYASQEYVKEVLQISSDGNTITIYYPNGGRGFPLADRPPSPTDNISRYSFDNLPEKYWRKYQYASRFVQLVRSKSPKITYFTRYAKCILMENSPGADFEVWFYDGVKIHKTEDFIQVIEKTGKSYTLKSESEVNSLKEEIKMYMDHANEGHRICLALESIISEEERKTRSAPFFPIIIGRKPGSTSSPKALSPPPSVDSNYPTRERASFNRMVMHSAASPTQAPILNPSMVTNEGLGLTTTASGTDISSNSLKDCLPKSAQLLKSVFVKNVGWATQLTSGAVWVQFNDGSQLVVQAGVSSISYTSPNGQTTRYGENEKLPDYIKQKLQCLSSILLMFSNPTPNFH
Method in brief: as §1

MERTK = molecular target: T6, MERTK (Homo sapiens, UniProt Q12866); details: read-out: % control
T6 sequence (Q12866 21-999): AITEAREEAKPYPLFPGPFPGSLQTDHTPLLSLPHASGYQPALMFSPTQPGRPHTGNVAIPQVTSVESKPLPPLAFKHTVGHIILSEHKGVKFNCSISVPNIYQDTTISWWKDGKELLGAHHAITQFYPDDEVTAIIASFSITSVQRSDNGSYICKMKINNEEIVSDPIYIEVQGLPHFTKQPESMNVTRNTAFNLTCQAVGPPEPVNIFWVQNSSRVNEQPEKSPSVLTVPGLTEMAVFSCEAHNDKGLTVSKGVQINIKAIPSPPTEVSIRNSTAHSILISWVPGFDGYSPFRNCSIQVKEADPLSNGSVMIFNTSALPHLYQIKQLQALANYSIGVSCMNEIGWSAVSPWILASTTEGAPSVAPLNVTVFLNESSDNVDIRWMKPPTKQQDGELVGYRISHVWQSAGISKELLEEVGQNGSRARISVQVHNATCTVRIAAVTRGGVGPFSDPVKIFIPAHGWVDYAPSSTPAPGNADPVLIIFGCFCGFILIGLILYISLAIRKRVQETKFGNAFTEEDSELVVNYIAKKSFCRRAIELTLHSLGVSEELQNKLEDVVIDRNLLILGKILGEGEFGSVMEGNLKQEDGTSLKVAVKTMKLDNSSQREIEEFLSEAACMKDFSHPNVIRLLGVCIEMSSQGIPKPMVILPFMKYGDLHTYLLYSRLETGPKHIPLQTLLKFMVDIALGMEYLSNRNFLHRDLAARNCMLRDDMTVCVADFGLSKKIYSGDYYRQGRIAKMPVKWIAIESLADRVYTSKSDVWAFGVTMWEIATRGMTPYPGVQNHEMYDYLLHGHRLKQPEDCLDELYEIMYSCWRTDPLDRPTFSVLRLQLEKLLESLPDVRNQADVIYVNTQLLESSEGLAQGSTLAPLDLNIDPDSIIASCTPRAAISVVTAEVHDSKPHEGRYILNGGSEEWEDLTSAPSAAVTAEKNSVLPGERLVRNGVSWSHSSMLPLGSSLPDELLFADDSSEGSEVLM
Method in brief: as §1

IRAK1 = molecular target: T7, IRAK1 (Homo sapiens, UniProt P51617); details: IRAK1, 1 μM; read-out: % control
T7 construct: purchased KinomeScan®
Method in brief: as §1

PIK3CG = molecular target: T8, PIK3CG (Homo sapiens, UniProt P48736); details: read-out: % control
T8 construct: purchased KinomeScan® (panel service)
Method in brief: as §1

PFCDPK1(P. falciparum) = PFCDPK1(P. falciparum) (Plasmodium falciparum, UniProt P62344); details: read-out: % control
Method in brief: as §1

T4 sequence (P42684 whole entry): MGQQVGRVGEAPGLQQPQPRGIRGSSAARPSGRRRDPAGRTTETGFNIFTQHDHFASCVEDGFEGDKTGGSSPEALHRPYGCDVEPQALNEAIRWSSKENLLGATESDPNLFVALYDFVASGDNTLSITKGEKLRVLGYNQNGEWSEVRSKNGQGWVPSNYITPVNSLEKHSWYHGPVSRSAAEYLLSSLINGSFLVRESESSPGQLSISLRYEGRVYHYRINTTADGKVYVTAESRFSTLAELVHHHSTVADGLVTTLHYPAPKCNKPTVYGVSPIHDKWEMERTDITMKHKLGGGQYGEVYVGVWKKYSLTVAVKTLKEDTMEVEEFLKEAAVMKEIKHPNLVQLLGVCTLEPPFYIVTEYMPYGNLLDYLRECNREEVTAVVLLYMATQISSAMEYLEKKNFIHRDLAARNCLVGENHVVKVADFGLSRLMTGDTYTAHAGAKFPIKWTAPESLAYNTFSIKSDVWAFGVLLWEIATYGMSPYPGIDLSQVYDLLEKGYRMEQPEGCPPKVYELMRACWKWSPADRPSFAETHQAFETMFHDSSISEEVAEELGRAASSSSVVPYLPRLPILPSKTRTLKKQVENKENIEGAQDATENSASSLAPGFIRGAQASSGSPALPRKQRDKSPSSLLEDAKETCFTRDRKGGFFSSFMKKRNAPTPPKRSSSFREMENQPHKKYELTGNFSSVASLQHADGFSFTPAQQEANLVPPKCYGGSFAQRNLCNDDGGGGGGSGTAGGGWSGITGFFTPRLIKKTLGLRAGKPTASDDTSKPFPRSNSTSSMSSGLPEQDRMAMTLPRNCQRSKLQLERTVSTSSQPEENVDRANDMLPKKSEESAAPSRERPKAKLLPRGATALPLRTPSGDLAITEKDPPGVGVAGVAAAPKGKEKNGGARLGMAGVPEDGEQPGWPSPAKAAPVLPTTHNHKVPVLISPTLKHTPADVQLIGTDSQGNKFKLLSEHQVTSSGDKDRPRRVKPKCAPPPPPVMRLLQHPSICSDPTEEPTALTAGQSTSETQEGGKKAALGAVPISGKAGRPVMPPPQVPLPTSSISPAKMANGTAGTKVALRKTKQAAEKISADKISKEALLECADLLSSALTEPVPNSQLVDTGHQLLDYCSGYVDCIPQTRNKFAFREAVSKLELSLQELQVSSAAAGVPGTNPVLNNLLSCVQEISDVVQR
Chain of PFCDPK1(P. falciparum) (P62344 whole entry): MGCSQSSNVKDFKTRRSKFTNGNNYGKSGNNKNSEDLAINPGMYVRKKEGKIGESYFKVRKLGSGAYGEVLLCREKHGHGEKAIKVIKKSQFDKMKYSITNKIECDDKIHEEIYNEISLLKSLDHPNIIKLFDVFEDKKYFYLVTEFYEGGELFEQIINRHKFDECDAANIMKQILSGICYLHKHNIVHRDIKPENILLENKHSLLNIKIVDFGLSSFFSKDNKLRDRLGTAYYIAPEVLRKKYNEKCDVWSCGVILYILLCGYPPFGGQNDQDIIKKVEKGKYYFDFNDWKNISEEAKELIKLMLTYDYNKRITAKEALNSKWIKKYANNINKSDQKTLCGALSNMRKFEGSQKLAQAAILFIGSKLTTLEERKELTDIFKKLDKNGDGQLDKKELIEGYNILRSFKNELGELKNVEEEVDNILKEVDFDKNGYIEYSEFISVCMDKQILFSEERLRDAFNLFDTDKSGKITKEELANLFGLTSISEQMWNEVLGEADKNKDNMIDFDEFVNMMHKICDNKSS
T7 sequence (P51617 whole entry): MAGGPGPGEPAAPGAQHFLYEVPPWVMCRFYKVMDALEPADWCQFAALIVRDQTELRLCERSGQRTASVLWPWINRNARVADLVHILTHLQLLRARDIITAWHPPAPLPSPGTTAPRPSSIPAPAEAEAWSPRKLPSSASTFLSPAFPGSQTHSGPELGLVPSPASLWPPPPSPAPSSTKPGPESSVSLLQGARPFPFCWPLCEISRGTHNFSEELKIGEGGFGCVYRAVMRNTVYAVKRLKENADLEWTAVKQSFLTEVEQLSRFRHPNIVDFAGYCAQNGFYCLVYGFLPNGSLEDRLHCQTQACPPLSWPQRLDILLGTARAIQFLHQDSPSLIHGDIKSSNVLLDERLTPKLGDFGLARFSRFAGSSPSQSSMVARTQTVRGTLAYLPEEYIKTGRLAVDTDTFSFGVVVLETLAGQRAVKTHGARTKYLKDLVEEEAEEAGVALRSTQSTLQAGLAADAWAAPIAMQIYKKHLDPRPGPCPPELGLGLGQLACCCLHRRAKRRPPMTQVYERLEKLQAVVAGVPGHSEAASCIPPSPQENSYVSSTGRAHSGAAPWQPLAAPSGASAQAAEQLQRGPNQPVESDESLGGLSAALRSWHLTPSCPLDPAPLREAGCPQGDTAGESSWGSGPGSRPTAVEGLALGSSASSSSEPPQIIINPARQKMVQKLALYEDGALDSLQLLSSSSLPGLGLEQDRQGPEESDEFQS
Chain of CSNK2A2 (P19784 whole entry): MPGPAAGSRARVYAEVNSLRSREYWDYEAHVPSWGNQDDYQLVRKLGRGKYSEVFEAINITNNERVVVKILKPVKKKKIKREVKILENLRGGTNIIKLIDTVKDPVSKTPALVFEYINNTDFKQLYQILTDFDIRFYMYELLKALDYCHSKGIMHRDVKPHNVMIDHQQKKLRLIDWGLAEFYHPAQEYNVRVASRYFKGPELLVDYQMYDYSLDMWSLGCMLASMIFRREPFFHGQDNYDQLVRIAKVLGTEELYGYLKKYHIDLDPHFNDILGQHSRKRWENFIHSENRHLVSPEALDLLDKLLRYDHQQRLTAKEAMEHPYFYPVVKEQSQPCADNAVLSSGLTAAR
T8 sequence (P48736 whole entry): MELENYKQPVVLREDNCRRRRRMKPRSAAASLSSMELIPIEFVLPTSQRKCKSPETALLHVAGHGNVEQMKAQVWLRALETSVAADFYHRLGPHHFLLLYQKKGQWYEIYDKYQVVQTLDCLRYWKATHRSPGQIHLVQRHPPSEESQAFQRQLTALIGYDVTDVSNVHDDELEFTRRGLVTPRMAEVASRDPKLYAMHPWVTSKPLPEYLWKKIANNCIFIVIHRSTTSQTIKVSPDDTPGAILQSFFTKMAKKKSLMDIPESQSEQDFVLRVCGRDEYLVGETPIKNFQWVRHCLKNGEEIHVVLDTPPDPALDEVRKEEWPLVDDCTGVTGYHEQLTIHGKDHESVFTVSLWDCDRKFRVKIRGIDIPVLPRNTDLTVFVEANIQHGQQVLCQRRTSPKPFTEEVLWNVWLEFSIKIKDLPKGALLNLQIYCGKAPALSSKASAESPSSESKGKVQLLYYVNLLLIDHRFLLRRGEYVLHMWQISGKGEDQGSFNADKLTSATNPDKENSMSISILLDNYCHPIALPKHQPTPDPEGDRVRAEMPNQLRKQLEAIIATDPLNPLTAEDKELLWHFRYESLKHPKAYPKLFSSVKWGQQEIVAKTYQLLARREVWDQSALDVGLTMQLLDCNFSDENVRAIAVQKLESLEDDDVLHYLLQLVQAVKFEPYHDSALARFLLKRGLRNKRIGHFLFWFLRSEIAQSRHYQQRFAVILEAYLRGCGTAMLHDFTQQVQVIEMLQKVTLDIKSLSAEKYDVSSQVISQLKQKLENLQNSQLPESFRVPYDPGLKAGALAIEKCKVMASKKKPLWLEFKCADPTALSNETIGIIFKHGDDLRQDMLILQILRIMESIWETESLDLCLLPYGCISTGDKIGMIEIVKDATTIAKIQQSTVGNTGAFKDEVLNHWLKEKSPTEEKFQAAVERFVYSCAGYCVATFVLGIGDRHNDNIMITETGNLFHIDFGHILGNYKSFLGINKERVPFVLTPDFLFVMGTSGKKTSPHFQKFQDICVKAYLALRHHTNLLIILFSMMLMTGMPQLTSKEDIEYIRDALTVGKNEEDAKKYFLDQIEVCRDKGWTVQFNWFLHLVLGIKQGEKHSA

SMILES	remaining binding at 1 µM [1] [%]	remaining binding at 1 µM (CSNK2A2) [%]	remaining binding at 1 µM (PKAC-alpha) [%]	remaining binding at 1 µM [2] [%]	remaining binding at 1 µM (ABL2) [%]	remaining binding at 1 µM (PLK4) [%]	remaining binding at 1 µM (MERTK) [%]	remaining binding at 1 µM (IRAK1) [%]	remaining binding at 1 µM (PIK3CG) [%]	remaining binding at 1 µM (PFCDPK1(P. falciparum)) [%]
CNc1c(-c2ccc(C(=O)N3CCC(N4CCOCC4)CC3)cc2)cnc2[nH]cc(Cl)c12 [Compound 96, (4-(3-chloro-4-(methylamino)-1H-pyrrolo[2,3-b]pyridin-5-yl)phenyl)(4-morpholinopiperidin-1-yl)methanone]	64	92	100	100	100	27	42	41	100	94
O=C(c1ccc(-c2cnc3[nH]cc(Cl)c3c2NC2CCCC2)cc1)N1CCC(N2CCOCC2)CC1 [Compound 101, (4-(3-chloro-4-(cyclopentylamino)-1H-pyrrolo[2,3-b]pyridin-5-yl)phenyl)(4-morpholinopiperidin-1-yl)methanone]	92	100	100	85	99	78	41	100	95	95
CNc1c(-c2cnn([C@H]3CCN(C(C)=O)C[C@@H]3F)c2)cnc2[nH]cc(Cl)c12 [Compound 77, 1-((3S,4S)-4-(4-(3-chloro-4-(methylamino)-1H-pyrrolo[2,3-b]pyridin-5-yl)-1H-pyrazol-1-yl)-3-fluoropiperidin-1-yl)ethan-1-one]	50	90	100	100	92	27	45	33	99	86
